Laboratory results: patent US20210253511A1, “COMPOUNDS AND USES FOR THE TREATMENT AND PREVENTION OF DISEASES AND CONDITIONS ASSOCIATE WITH OR AGGREVATED BY IMPARED MITOPHAGY” (Yissum Research Development Company of The Hebrew …, priority 2018, published 2021)
“Also recorded” adds a separate entry of the source.

Key:
[1] = tested on: C. elegans worms in 200 mM paraquat (PQ); test: Paraquat survival assay; type: in vivo; conditions: 200 mM PQ
Experimental: C. elegans strains were grown at 21° C. on nematode growth media (NGM) agar plates containing diamines or vehicle as a control. The NGM agar plates were prepared as described in L. Livshits, E. Gross, A method for measuring sulfide toxicity in the nematode Caenorhabditis elegans, MethodsX 4 (2017) 250-255. A suspension of 3 g sodium chloride (NaCl), 20 g Bacto agar, and 2.5 g of Bacto peptone in 1 L of double distilled water (DDW) was mixed and autoclaved. Then, the medium was cooled to 55° C. and supplemented with 1 ml of 100 mM CaCl2), 1 ml of 100 mM MgSO4, 25 ml of 1 M potassium phosphate buffer pH 6, and 1 ml of 5 mg/ml cholesterol (the cholesterol was dissolved in ethanol). Diamines or DDW (vehicle) were added to the NGM-agar solution. For RNAi NGM-agar plates, Isopropyl β-D-1-thiogalactopyranoside (IPTG) and ampicillin were added to a final concentration of 1 mM and 100 μg/ml, respectively. The NGM-agar solution was thoroughly vortex mixed and immediately poured into 35 mm petri dish (4 ml per plate). NGM-plates were covered with aluminum foil and dried for 24 h at room temperature (RT). 24 h before the experiment, plates were seeded with 100 μl bacteria (OD600=0.6, OP50 or HT115(DE3)). The seeded plates were covered with aluminum foil and dried for 24 h at RT.
To get synchronized C. elegans larvae, the method described in W. B. Wood, The Nematode Caenorhabditis Elegans, Cold Spring Harbor Laboratory 1988, was performed. In brief, hypochlorite/NaOH solution was made by mixing 1 ml of 5% solution of sodium hypochlorite, 800 μl of 2.5 N NaOH and 2.2 ml DDW to final concentrations of 0.5 N NaOH and 1.25% sodium hypochlorite. M9 buffer was made by dissolving 3 g KH2PO4, 6 g Na2HPO4, 5 g NaCl and 1 ml of MgSO4 from 1M stock in 1 litter of DDW. The solution pH was adjusted to 7 and sterilizes by filtration (with a 0.2 µm filter bottle). Gravid hermaphrodites was washed from the NGM plates into a 15 ml tube with M9 buffer and centrifuged for 2 min at 900×g, RT. Liquid was removed until 2 ml worms' suspension was left and added 2 ml of hypochlorite/NaOH solution. A 5 ml syringe with a 21-gauge needle was used to aspirate the worm suspension back and forth several times. After 3 min it was observed the state of the worms using a dissecting stereoscope. At this stage, approximately 50% of worms should appear broken and many of the embryos should float in the solution. The embryos were immediately sedimented using centrifugation (1690×g for 2 min) and carefully removed the supernatant and add 10 ml of M9 buffer. This washing step was repeated three additional times. The supernatant was removed until 2 ml remains and rotated the tube for 16 h at RT. The hatched L larvae were collected by centrifugation (1690×g for 3 min) and put ˜80 L in each seeded NGM assay plate. Grow the L1 (Day 1) for 3 days until they become young adults (Day 3).

[2] = tested on: dct-1(tm376) mutants / dct-1 RNAi worms; test: Paraquat survival assay in dct-1 deletion mutant or RNAi knockdown worms; type: in vivo, C. elegans
Experimental: FIGS. 9A-9D show the protective activity of 1,8-Diaminooctane is mitophagy-dependent. (FIG. 9A) is a schematic illustration of the mitophagy pathway in C. elegans. Survival curves presenting the effect of dct-1 and pink-1 deletion mutations (FIG. 9B, FIG. 9C) or RNAi knockdowns (FIG. 9D) on worms' viability in 200 mM PQ at indicated time points. Statistical analysis on PQ survival curves were performed using the log-rank (Mantel-Cox) test with Prism 7 software. The plots represent the average of six independent experiments. The minimum number of worms examined for each experimental condition is 133.
In the first one, the effect of 1,8-Diaminooctane on the survival of dct-1 and pink-1 mutants in PQ was investigated. DCT-1 is an orthologue of the mammalian NIX/BNIP3L and BNIP3 that act as mitophagy receptors, and PINK-1 is a mitochondrial phosphatase and tensin (PTEN)-induced kinase 1 which has a critical function in mitophagy (see K. Palikaras, E. Lionaki, N. Tavernarakis, Coordination of mitophagy and mitochondrial biogenesis during ageing in C. elegans, Nature 521 (7553) (2015) 525-8; and FIG. 3A). It was hypothesized that if mitophagy is essential for the protective effect of 1,8-Diaminooctane, then dct-1 and pink-1 mutants will become sensitive to PQ following treatment. […] The second experiment that was performed was an RNAi experiment. Here, dct-1 and pink-1 were selectively knocked down using RNAi. The RNAi results recapitulated the one of the mutant experiments ([…]). […] Importantly, the RNAi phenotype was less strong compared to the one observed with the deletion mutants. […] The difference between the results could be due to incomplete suppression of dct-1 and pink-1 in the RNAi treated worms. Together, our results verify that 1,8-Diaminooctane protects against oxidative stress by activating mitophagy.

C. elegans = test: Off-food speed measurements; type: in vivo; conditions: 4 mM, aged worms, untreated worms declined significantly
Experimental: Bar graphs presenting the speed of 3 and 11 days post L1 wild-type worms that were treated with 4 mM 1,8-Diaminooctane or with vehicle as a control. The measurements of speed were performed in the absence of food (n=6 assays performed over at least 3 days). Asterisks indicate significance for comparisons with control worms (day 11). **p<0.01, two-way ANOVA with Bonferroni post-test. NS, Not significant. Error bars indicate SEM.
For speed-imaging experiments, low-peptone NGM agar plates were used. These plates were prepared as described above apart from the of Bacto peptone concentration that was decreased to 0.13 g/L and the use of 60 mm petri dished (instead of 35 mm dishes). […] In brief, eight synchronized worms (age 3 or 11 post-L1) were put (for 30 min) in a drop of M9 buffer to clean them from external and internal bacteria. During the 30 min the M9 buffer was replaced twice. After 30 min, the worms were placed at the center of a 17 mm diameter copper ring on an unseeded low-peptone plate. Recording was started after 5 min acclimation time. The worms were recorded for 10 min at 0.5 frames/s, using a Q-Imaging MicroPublisher 5.0 RTV Microscope Camera mounted onto an Olympus SZ61 stereo microscope. A custom-written MATLAB software was used to analyze the speed. For each treatment, at least 48 animals in 6 independent assays were measured.

NCCCCCCCCN [1,8-Diaminooctane]
survival of worms in paraquat ([1]; 0.0625, 0.25, 1 and 4 mM (all treatments), L1 to young adult (~48 h), vs distilled-water control, log-rank p<0.0001): increase the survival of worms significantly; also recorded: significantly increases the resistance to paraquat toxicity in a dose-dependent manner | survival of worms in paraquat ([1]; compound at 4 mM, vs control worms): best protection | survival of worms in paraquat ([1]; tested at 0.0625 mM and 0.25 mM, not split): significantly improved the survival of worms in PQ | survival in PQ of treated worms, RNAi against dct-1 ([2]; compared to control worms that did not get the treatment, p<0.0001): significantly higher than control worms | resistance to PQ after treatment, dct-1(tm376) mutants ([2]; compared to treated wild-type worms, 200 mM PQ, p<0.0001): significantly less resistant to PQ | protective effect in PQ, RNAi against dct-1 ([2]; compared to worms treated with mock RNAi (empty vector)): significantly lesser | speed (off food), day 11 post L1 (C. elegans): remained high and was similar to day 3 | speed (off food), day 11 post L1 (C. elegans; listed as 1,8-diaminooctane): no change in the speed
